Non-standard residues stand in square brackets, D forms with d. Residues, ends and D or L forms follow the SMILES beside them. No end group written: not given here.
Key:
P. aeruginosa elastase = system: T1, P. aeruginosa elastase; test: Enzymatic digestion with P. aeruginosa elastase, RP-HPLC; format: in vitro ADME; settings: isolated enzyme elastase; peptide 1 mg/mL in 10 mM Tris-HCl pH 7.5, 20 U P. aeruginosa elastase, 37 °C, 30 min, RP-HPLC C18 peak integration; read-out: % of full-length peptide
T1 construct: purchased Elastin Products Company
Method: L- and D-Q53 CecB peptides, as well as the human LL-37 peptide (Merck, Burlington, MA, USA), were dissolved in 10 mM Tris-HCl, pH 7.5, at a final concentration of 1 mg/mL. Subsequently, 120 μL of each peptide solution were incubated at 37 °C with 20 U of human leukocyte elastase (Merck) or P. aeruginosa elastase (Elastin Products Company, Owensville, MO, USA) and 5 μL of 10 mM Tris-HCl, pH 7.5. At given time intervals (30, 60, 120, and 300 min), a volume corresponding to 30 μg of each peptide was diluted in 70 μL of 1% trifluoroacetic acid (TFA) to stop the reaction. Peptide suspensions,v without any enzyme (undigested controls), were processed in parallel. Each solution was analyzed by RP-HPLC, using a Phenomenex LC C18 analytical column (300 Å, […], 250 × 4.6 mm; Phenomenex, Torrance, CA, USA) and a Widepore C18 security guard cartridge (4 × 3.0 mm; Phenomenex, Torrance, CA, USA), in a 30 min-linear Acetonitrile (ACN) gradient (from 0% to 40% for L- and D-Q53 CecB peptides; from 20% to 60% for LL-37). A Waters Alliance 2695 Separations Module connected to a 996 PDA (Waters, Milford, MA, USA) was employed for RP-HPLC.

[1] = system: P. aeruginosa PAO1-L strain; test: microbe, parasite or virus in culture; format: cell-based, Pseudomonas aeruginosa; settings: value between parentheses, 24 h, 37 °C, plating on LBA
Method: (§1) The following strains were used: P. aeruginosa ATCC 27853, ATCC 25668, and PAO1-L (Lausanne subline). All strains were grown at 37 °C in Luria Bertani (LB) medium or in Luria Bertani Agar (LBA) plates.
(§2) The antibacterial activities of L- and D-Q53 CecB were evaluated by determining (i) the MIC and (ii) the MBC. Tobramycin (Merck) was used as an antibiotic control. (i) An overnight (ON) bacterial culture was diluted to 1 × 10^6 cells/mL in LB medium. 50 µL/well were seeded in sterile polypropylene 96-well plates (Corning, Corning, NY, USA) and added with 50 µL LB medium, containing serial dilutions of each compound (final concentrations of L- and D-Q53 CecB peptides from 1.1 to 35.2 µM; final concentrations of tobramycin from 0.26 to 17 μM; each condition in triplicate). Microbial suspensions in the growing medium (positive control) and wells with only the medium (negative controls) were processed in parallel. Plates were incubated 24 h at 37 °C with agitation (300 rpm), and the absorbance was measured at 600 nm in a microplate reader. The MIC was considered as the lowest concentration determining a delta optical density at 600 nm (ΔOD600) equal to 0 ± 0.05. The ΔOD600 was determined by subtracting the OD600 recorded at time 0 from that obtained after 24 h. Each experiment was performed at least three times. […] For each sample, 100 μL of 1:10, 1:100, and 1:1000 dilutions were plated on LBA plates, and colonies were counted after 24 h at 37 °C. […] Each experiment was performed at least twice.

[2] = system: P. aeruginosa ATCC 25668, ATCC 27853, and PAO1-L strains; test: microbe, parasite or virus in culture; format: cell-based, Pseudomonas aeruginosa; settings: LB medium, 24 h, 37 °C, OD600; same value for all three strains; triplicate, at least three experiments
Method: as §1, §2

trypsin = settings: cited from earlier work
Excerpt: Recently, we characterized Q53 CecB, a natural CecB variant derived from the silkworm Bombyx mori. […] Additionally, Q53 CecB maintains an anti-Pseudomonas activity at a high saline concent ...

[3] = system: P. aeruginosa (non-mucoid: ATCC 27853; mucoid: ATCC 25668); design: method as in PMID 31045339; settings: planktonic forms; cited from earlier work
Excerpt: (§3) We, therefore, determined the anti-Pseudomonas activity of D-Q53 CecB in comparison to the L- counterpart versus the planktonic forms of the same ATCC 27853 and ATCC 25668 strains, and a third POA1-L strain (Lausanne subline).

[4] = system: P. aeruginosa ATCC 27853 and ATCC 25668 strains; design: method as in PMID 31045339; settings: planktonic forms; cited from earlier work
Excerpt: as §3

[5] = system: linearized DNA (pIVEX 2.3d plasmid); test: Gel retardation assay, in vitro interaction with DNA; format: binding; settings: 100 ng DNA, 100-500 ng peptide, RT 1 h, 1% agarose gel; all tested conditions; three experiments
Method: One hundred ng of linearized DNA (pIVEX 2.3d plasmid) were incubated with increasing concentrations of the L- or D-peptides (0, 100, 150, 175, 200, 250, 275, 300, 350, 400, 450, 500 ng) at RT for 1 h. Samples were run into a 1% agarose gel in TAE buffer at 50 V and visualized in a Gel Doc X3+ (Biorad, Hercules, CA, USA). DNA band intensities were measured using the Image Lab software 6.1 (Biorad, Hercules, CA, USA). The band intensity reduction was calculated as the ratio between the band intensity in the presence of peptide over that of the untreated DNA. To compare the DNA binding activities of L- and D- peptides, for each peptide amount, we determined the ratio between the band intensity reduction with D-Q53 CecB and that with L-Q53 CecB. Three experiments have been performed.

Row | Compound | remaining at 0.5 h, 1 mg/mL (P. aeruginosa elastase) | MBC [1] | MIC [2] | antibacterial activity after trypsin treatment (trypsin) | MIC [3] | MBC [4] | ratio between the DNA band intensities for D- and L-Q53 CecB [5]
1 | RWKIFKKIEKMGRNIRDGIVKAGPAIQVLGSAKAI-NH2 [L-Q53 CecB] | ~0.2% | 4.40 µM | 2.20 µM | lost its antibacterial activity | 2.2 µM | 11 µM | 
2 | CC[C@@H](C)[C@@H](NC(=O)[C@@H](C)NC(=O)[C@@H](CCCCN)NC(=O)[C@@H](C)NC(=O)[C@@H](CO)NC(=O)CNC(=O)[C@@H](CC(C)C)NC(=O)[C@H](NC(=O)[C@@H](CCC(N)=O)NC(=O)[C@H](NC(=O)[C@@H](C)NC(=O)[C@H]1CCCN1C(=O)CNC(=O)[C@@H](C)NC(=O)[C@@H](CCCCN)NC(=O)[C@H](NC(=O)[C@H](NC(=O)CNC(=O)[C@@H](CC(=O)O)NC(=O)[C@@H](CCCNC(=N)N)NC(=O)[C@H](NC(=O)[C@@H](CC(N)=O)NC(=O)[C@@H](CCCNC(=N)N)NC(=O)CNC(=O)[C@@H](CCSC)NC(=O)[C@@H](CCCCN)NC(=O)[C@@H](CCC(=O)O)NC(=O)[C@H](NC(=O)[C@@H](CCCCN)NC(=O)[C@@H](CCCCN)NC(=O)[C@@H](Cc1ccccc1)NC(=O)[C@H](NC(=O)[C@@H](CCCCN)NC(=O)[C@@H](Cc1c[nH]c2ccccc12)NC(=O)[C@H](N)CCCNC(=N)N)[C@H](C)CC)[C@H](C)CC)[C@H](C)CC)[C@H](C)CC)C(C)C)[C@H](C)CC)C(C)C)C(N)=O [D-Q53 CecB] (H-[dR][dW][dK][dI][dF][dK][dK][dI][dE][dK][dM]G[dR][dN][dI][dR][dD]G[dI][dV][dK][dA]G[dP][dA][dI][dQ][dV][dL]G[dS][dA][dK][dA][dI]-NH2; N-terminus and C-terminus assumed) |  |  |  |  |  |  | ~ 1

Reference: PMC10419416, “Fighting Pseudomonas aeruginosa Infections: Antibacterial and Antibiofilm Activity of D-Q53 CecB, a Synthetic Analog of a Silkworm Natural Cecropin B Variant” (International Journal of Molecular Sciences, 2023)
